Read-outs that look alike come from different tables or passages of the source. One block for each molecule: values may come before it.
Assays:
[1] = tested on: OXPT-induced tactile allodynia, mice; assay: oxaliplatin (OXPT)-induced peripheral neuropathy, von Frey test
[2] = biological target: T1, Voltage-Gated Sodium channel hNav1.1 (Homo sapiens, UniProt P35498); assay: human sodium ion channel cell based automated patch clamp assay, hNav1.1
T1 construct: Eurofins Discovery (St. Charles, MO, USA)
Method: Therefore, as a part of the more detailed functional characterization using automated patch clamp method, we tested the influence of (R)-32 on sodium currents mediated by several Navx channels comprising 5 different human subunits, namely, Nav1.1, Nav1.2, Nav1.3, Nav1.6, and Nav1.7, which are involved in both seizure and/or pain modulation.[74],[80],[81] As summarized in Tables S4–S8, (R)-32 starting from 10 μM effectively and in concentration-dependent manner decreased sodium currents mediated by all aforementioned sodium channel subunits. Furthermore, (R)-32 appeared to bind exclusively to sodium channels that are in an inactivated state (see pulse 2 in Tables S4–S8), but not to the channels that are in an open state (pulse 1) (for additional details, see Supporting Information).
Human sodium ion channels cell based automated patch clamp assay
Human sodium ion channels cell based automated patch clamp assays: sodium channels exist in, a) a resting or closed state at -120 mV, b) a transient open state that inactivates to c) inactivated state at -10 mV. Sodium current inhibition within 1-2 ms of channel opening at 0 mV is open channel inhibition (pulse 1). In order to completely inactivate the sodium channels and facilitate inactivated state-dependent binding of the drug, the channels were kept at […] ( -10 mV) longer (pulsed for 500 ms) and then stepped back to -120 mV for 10 ms to recover from inactivation into resting or closed state (but the channels that had drug bound to them will not recover from inactivation and will not open) before stepping to -10 mV for 50 ms (pulse 2) to mea sure sodium channels that are available to open. The higher inhibition seen at pulse 2 is due to inactivated state -dependent inhibition. Pulse 1 and 2 are used to investigate drug binding to the open state and inactivated state of the Na channels, respectively. Each concentration of compound is applied for 5 minutes. The results obtained for (R)-32 are summerized in Tables S4–S8.
Table S4. Effect of the (R)-32 on subunit Nav1.1.
Voltage-Gated Sodium channel hNav1.1
Compound Concentration Measurement % Inhibition
Data interpretation: Results showing inhibition greater than 50% are considered to represent significant effects of test compound and have been bolded for (R)-32 for better visualization. The studies were carried out in Eurofins Discovery (St. Charles, MO, USA).

[3] = tested on: REDs in the medial entorhinal cortex of brain slices from kainate-treated rats; assay: spontaneous recurrent epileptiform discharges (REDs) in brain slices of KA-rats; set-up: species or system rat; settings: 40, 80 and 120 μM, 20 min bath exposure
Method: The effects of (R)-32 on spontaneous recurrent epileptiform discharges (REDs) recorded in the medial entorhinal cortex of a brain slices obtained from rats that had previously experienced kainate-induced status epilepticus (KA-rats) were evaluated at 40, 80, and 120 μM. […] Finally, the average duration, frequency, and amplitude of REDs after a 20 min exposure, and normalized to baseline measurements, is illustrated in Figure 4C for 40, 80, and 120 μM (R)-32. […] Accordingly, no EC50 quantifications were performed.
Figure 4 (R)-32 fails to affect REDs (recurrent epileptiform discharges) at any concentrations tested. (A) Representative traces of REDs recorded before (baseline), in the presence of 80 μM (R)-32, and 20 min after washout. […]
Evaluation of spontaneous recurrent electrographic discharges (REDs) from the medial entorhinal cortex in acute brain slices obtained from Sprague–Dawley rats that had previously experienced kainate-induced status epilepticus (KA-rats) were performed as previously described (West et al., 2018).[90] […] Extracellular field excitatory postsynaptic potentials (fEPSPs) were then recorded from layer II of the medial entorhinal cortex from 8 brain slices simultaneously. Spontaneous REDs were recorded for a 20 min baseline period. […] Data were acquired using pClamp 10.4.2 and analyzed using the included clampfit 10.4 software. […]

[4] = hNav1.1, Pulse 1 (open state), read-out: % Inhibition Mean
[5] = hNav1.1, Pulse 1 (open state), read-out: % Inhibition n1
[6] = hNav1.1, Pulse 1 (open state), read-out: % Inhibition n2
[7] = hNav1.1, Pulse 2 (inactivated state), read-out: % Inhibition Mean
[8] = hNav1.1, Pulse 2 (inactivated state), read-out: % Inhibition n1
[9] = hNav1.1, Pulse 2 (inactivated state), read-out: % Inhibition n2

SMILES: CC(=O)N[C@@H](C(=O)N1CCN(c2cccc(C(F)(F)F)c2)CC1)c1ccccc1 [(R)-31, (R)-N-(2-Oxo-1-phenyl-2-(4-(3-(trifluoromethyl)phenyl)piperazin-1-yl)ethyl)acetamide]
- pain threshold, early phase (3 h after OXPT), % of the initial value/baseline ([1]; 50 mg/kg i.p.): 114.5%
- pain threshold, early phase (3 h after OXPT), % of the initial value/baseline ([1]; 75 mg/kg i.p.): 93%
- pain threshold, late phase (7 days after OXPT), % of the baseline ([1]; 75 mg/kg i.p.): 87%
- pain threshold, early phase (3 h after OXPT), % of the initial value ([1]; 100 mg/kg i.p.): 78%
- pain threshold, late phase (7 days after OXPT), % of the baseline ([1]; 100 mg/kg i.p.): 77%

- inhibition at 3 µM [2, 4]: 3.28%
- inhibition at 3 µM [2, 5]: 4.33%
- inhibition at 3 µM [2, 6]: 2.23%
- inhibition at 30 µM [2, 4]: 16.2%
- inhibition at 30 µM [2, 5]: 20.5%
- inhibition at 30 µM [2, 6]: 11.9%
- inhibition at 300 µM [2, 4]: 89.7%
- inhibition at 300 µM [2, 5]: 91%
- inhibition at 300 µM [2, 6]: 88.4%
- inhibition at 3 µM [2, 7]: 54.9%
- inhibition at 3 µM [2, 8]: 58.3%
- inhibition at 3 µM [2, 9]: 51.5%
- inhibition at 30 µM [2, 7]: 95.7%
- inhibition at 30 µM [2, 8]: 96.6%
- inhibition at 30 µM [2, 9]: 94.8%
- inhibition at 300 µM [2, 7]: 101%
- inhibition at 300 µM [2, 8]: 102%
- inhibition at 300 µM [2, 9]: 100%
SMILES: CCCCNc1ccc(C(=O)OCCN(C)C)cc1 [Tetracaine, reference compound]

SMILES: CC(=O)N[C@@H](C(=O)N1CCN(c2cccc(OC(F)(F)F)c2)CC1)c1ccccc1 [(R)-32, (R)-N-(2-Oxo-1-phenyl-2-(4-(3-(trifluoromethoxy)phenyl)piperazin-1-yl)ethyl)acetamide]
- effect on RED parameters (duration, frequency, amplitude) [3]: failed to significantly affect
- inhibition at 1 µM [2, 4]: 1.61%
- inhibition at 1 µM [2, 5]: 2.91%
- inhibition at 1 µM [2, 6]: 0.31%
- inhibition at 10 µM [2, 4]: 1.2%
- inhibition at 10 µM [2, 5]: -0.28%
- inhibition at 10 µM [2, 6]: 2.68%
- inhibition at 100 µM [2, 4]: 31%
- inhibition at 100 µM [2, 5]: 24%
- inhibition at 100 µM [2, 6]: 38%
- inhibition at 1 µM [2, 7]: 1.92%
- inhibition at 1 µM [2, 8]: 1.74%
- inhibition at 1 µM [2, 9]: 2.11%
- inhibition at 10 µM [2, 7]: 41.9%
- inhibition at 10 µM [2, 8]: 45.3%
- inhibition at 10 µM [2, 9]: 38.6%
- inhibition at 100 µM [2, 7]: 97.6%
- inhibition at 100 µM [2, 8]: 97.9%
- inhibition at 100 µM [2, 9]: 97.4%
- pain threshold, early phase (3 h after OXPT), % of the baseline ([1]; 25 mg/kg i.p.): 102%
- pain threshold, late phase (7 days after OXPT), % of the baseline ([1]; 25 mg/kg i.p.): 68%
- pain threshold, early phase (3 h after OXPT), % of the initial value/baseline ([1]; 50 mg/kg i.p.): 90%
- pain threshold, late phase (7 days after OXPT), % of the baseline ([1]; 50 mg/kg i.p.): 94%
- pain threshold, early phase (3 h after OXPT), % of the initial value/baseline ([1]; 75 mg/kg i.p.): 109%
- pain threshold, late phase (7 days after OXPT), % of the baseline ([1]; 75 mg/kg i.p.): 108%
